In PMC3755965, “A Small Peptide with Therapeutic Potential for Inflammatory Acne Vulgaris” (PLoS ONE, 2013):
Converted amounts (≈) assume the structure as drawn. Where a SMILES comes first, the peptide text is derived from it.

Assays:
TNF-α = TNF-α in ear homogenate, ELISA; format: in vivo, Kunming mice; settings: day 1 to day 5, epicutaneous 0.2% gel, in words
Method: (§1) Ears of Kunming mice were injected with live P. acnes (ATCC 6919) as described above. The ear was excised on day 1 to day 5 after bacterial injection respectively, and then homogenized in 0.9% salt water (1 ml per ear) with a hand tissue grinder. The supernatant was collected after the centrifugation at 2000 × g for 10 min and then was used for cytokine measurement. The concentration of TNF-α and IL-1β was measured by using enzyme-linked immunosorbent assay kits (Excell Bio, Shanghai, China).

[1] = system: infiltrated inflammatory cells; assay: Histological check of mouse ears (HE stain); format: in vivo, Kunming mice; settings: 24 h after P. acnes challenge, epicutaneous 0.2% gel, in words
Source text: Ears of Kunming mice were excised and fixed in neutral-buffered 10% formalin solution and embedded in paraffin by routine procedures. The slides were cut at approximately 4 µm and stained routinely with haematoxylin and eosin (HE). Images were obtained using a Nikon Eclipse 80i microscope (Nikon, Japan).

P. acnes (ATCC6919) = assay: P. acnes colonization within mouse ear (CFU count); format: in vivo, Kunming mice; settings: for P. acnes colonized within the ear: mean of four experiments
Method: As described previously, P. acnes (ATCC6919) was grown to the exponential-phase in BHI broth and then centrifuged at 1000 g for 10 min. The bacterium pellet was then washed twice and re-suspended in 0.9% salt water (5×10^8 CFU/ml). Kunming mice (20 ± 2 g) were anesthetised by intraperitoneal (IP) administration of ketamine (50 mg/kg) and xylazine (15 mg/kg), and then 20 µl P. acnes solution was intradermally injected into left ears of the mice. Right ears received the same volume of 0.9% salt water. Placebo or 0.2% LZ1 gel (Polyethylene Glycol (PEG) 400: PEG 4000, 1:1) was applied on the surface of right ear skin after injection with P. acnes or saline. […] Ear thickness after 24 h bacterial injection was measured using a micro caliper.
To determine P. acnes number in the ear, the left ear was cut off after 24 h bacterial injection and the mice were sacrificed immediately by cervical dislocation. The ears were wiped to remove gel and then homogenized in 0.9% salt water (1 ml per ear) with a hand tissue grinder. CFUs of P. acnes in the ear were enumerated by plating serial dilutions of the homogenate on BHI plates and the bacterial numbers were counted after 72 h incubation under anaerobic conditions at 37°C.
To further investigate the therapeutical effect, the increase in ear thickness and the P. acnes number in the ear after bacterial injection were determined continuously on day 2 to day 5 as described above. […] All the experimental protocols to use animals were approved by the Animal Care and Use Committee at Kunming Institute of Zoology, Chinese Academy of Sciences.

[2] = system: P. acnes (ATCC6919)-induced ear swelling; assay: P. acnes-induced ear swelling in mice; format: in vivo, Kunming mice; settings: mean of four experiments
IL-1β = IL-1β in ear homogenate, ELISA; format: in vivo, Kunming mice
Method: as §1

human red blood cells = settings: up to 320 µg/ml, 37°C, 30 min, A540, relative to 1% Triton X-100, mean of five experiments
Method: Hemolysis assay was undertaken using human red blood cells in liquid medium as our previous reports. Serial dilutions of testing sample were incubated with human red cells at 37°C. After the incubation for 30 min, the cells were centrifuged and the absorbance in the supernatant was measured at 540 nm. Maximum hemolysis was determined by adding 1% Triton X-100 to a sample of cells. Hemolysis of testing samples was calculated as the percentage of cytotoxicity of Triton X-100.

S. aureus 09B2499 = settings: LB broth, aerobic, 37°C, 24 or 48 h, A600; mean of three independent experiments in duplicates
P. acnes ATCC11827 = settings: BHI broth, anaerobic, 37°C, 72 h, A600; mean of three independent experiments in duplicates; ND = no detectable activity
Method: (§2) The strains of P. acnes were cultured in brain heart infusion (BHI) broth (HKM, Guangzhou, China) with 1% glucose at 37°C under an anaerobic atmosphere using MGC Anaeropack systems (Mitsubishi, Gas Chemical Co., Inc, Japan), respectively. […] S. epidermidis (09A3726 and 09B2490) and S. aureus (ATCC 2592) were grown in LB (Luria-Bertani) broth as our previous report.
(§3) Briefly, samples were prepared as a stock solution in 0.9% salt water at a series of concentration. 890 µl special broth (BHI broth for P. acnes, LB broth for S. epidermidis and S. aureus), 100 µl bacterial suspension (10^8 CFU/ml) and 10 µl test sample were put together in the test tube under anaerobic conditions at 37°C for 72 h for P. acnes and under aerobic conditions at 37°C for 24 or 48 h for S. epidermidis and S. aureus. An absorbance at 600 nm was measured by a microplate reader to estimate bacterial growth. The MIC was defined as the lowest concentration of test sample completely inhibiting microorganism’s growth.

S. epidermidis 09A3726 = settings: LB broth, aerobic, 37°C, 24 or 48 h, A600; mean of three independent experiments in duplicates; ND = no detectable activity
Method: as §2, §3

S. epidermidis 09B2490 = settings: LB broth, aerobic, 37°C, 24 or 48 h, A600; mean of three independent experiments in duplicates
Method: as §2, §3

[3] = system: P. acnes (IS, DR), clinically isolated strain with clindamycin resistance; settings: clindamycin-resistant clinical isolate; BHI broth, anaerobic, 37°C, 72 h, A600; mean of three independent experiments in duplicates; ND = no detectable activity
Method: as §2, §3

P. acnes ATCC6919 = settings: BHI broth, anaerobic, 37°C, 72 h, A600; mean of three independent experiments in duplicates; ND = no detectable activity
Method: as §2, §3

[4] = Effect of human plasma on antibacterial activity (inhibition zone); format: in vitro ADME; settings: 100 µM, 37°C, inhibition zone on P. acnes ATCC6919, S. epidermidis 09A3726, S. aureus 09B2499, three experiments
Method: LZ1 or human cathelicidin antimicrobial peptide LL-37 (control) was mixed with human plasma (final concentration 100 µM) for 0, 0.5, 1, 2, 4, 6 and 8 hours at 37°C, respectively. Residual antibacterial activity was evaluated by using 10 µl aliquot of the mixture to measure inhibitory zone on bacterial growth on BHI or LB broth containing 0.7% agar as previously described. The diameters of inhibition zones were recorded after 72-hour incubation for P. acnes and 24-hour incubation for S. epidermidis and S. aureus, respectively.

[5] = system: Human HaCaT keratinocyte cells; settings: 20 to 200 µg/ml, 24-h treatment, MTT, A570, mean of five experiments
Method: Human HaCaT keratinocyte cells (1×10^5 cells/ml, obtained from Cell Bank of Kunming Institute of Zoology, Chinese Academy of Sciences) were cultured in 96-well plates with Dulbecco’s modified Eagle’s medium (DMEM, Gibco) containing 10% fetal calf serum and penicillin (100 u/ml)-streptomycin (100 mg/ml) at 37°C in a humidified 5% CO2 atmosphere. Cell viability was evaluated by conventional 3-(4, 5-dimethyl-2-thiazolyl)-2, 5-diphenyl-2H-tetrazolium bromide (MTT) reduction assays. After a 24-h treatment by testing sample, 20 µl of MTT (5 mg/ml) was added to each well. The MTT solution was then removed and 200 µl dimethyl sulfoxide (DMSO) was added to solubilize the MTT-formazan cristals in living cells. The absorbance at 570 nm of the resulting solution was measured. The experiments were performed in triplicate.

CCC[C@@H]1C[C@@H](C(=O)N[C@@H]([C@H]2O[C@H](SC)[C@H](OP(=O)(O)O)[C@@H](O)[C@H]2O)[C@H](C)Cl)N(C)C1 [clindamycin, clindamycin phosphate]
effect on TNF-α secretion induced by P. acnes challenge (TNF-α): no inhibitory effect
number of infiltrated inflammatory cells [1]: decreased infiltrated inflammatory cells
P. acnes colonized within the ear (P. acnes (ATCC6919); Day 1, 0.2% gel epicutaneous): 360±77 10^3 CFU per ear
P. acnes colonized within the ear (P. acnes (ATCC6919); Day 2, 0.2% gel epicutaneous once per day): 32±4.1 10^3 CFU per ear
P. acnes colonized within the ear (P. acnes (ATCC6919); Day 3, 0.2% gel epicutaneous once per day): 14±1.7 10^3 CFU per ear
P. acnes colonized within the ear (P. acnes (ATCC6919); Day 4, 0.2% gel epicutaneous once per day): 6±0.5 10^3 CFU per ear
P. acnes colonized within the ear (P. acnes (ATCC6919); Day 5, 0.2% gel epicutaneous once per day): 1.5±0.1 10^3 CFU per ear
reduction in the number of P. acnes colonized within the ear (P. acnes (ATCC6919); day 2, versus vehicle): 58.9%
reduction in the number of P. acnes colonized within the ear (P. acnes (ATCC6919); day 3, versus vehicle): 58.8%
reduction in the number of P. acnes colonized within the ear (P. acnes (ATCC6919); day 4, versus vehicle): 71.4%
reduction in the number of P. acnes colonized within the ear (P. acnes (ATCC6919); day 5, versus vehicle): 50%
ear thickness, % of the control (un-challenged) ([2]; day 1 after P. acnes injection, 0.2% gel epicutaneous): 147%
ear thickness, % of the control (un-challenged) ([2]; day 2, 0.2% gel epicutaneous once per day): 145%
ear thickness, % of the control (un-challenged) ([2]; day 3, 0.2% gel epicutaneous once per day): 130%
ear thickness, % of the control (un-challenged) ([2]; day 4, 0.2% gel epicutaneous once per day): 125%
ear thickness, % of the control (un-challenged) ([2]; day 5, 0.2% gel epicutaneous once per day): 105%
IL-1β concentration in mouse ear (IL-1β; day 1, 1 ml saline per ear, vehicle 483, three experiments): 346 pg/mL
IL-1β concentration in mouse ear (IL-1β; day 2, 1 ml saline per ear, vehicle 221, three experiments): 83 pg/mL
IL-1β concentration in mouse ear (IL-1β; day 3, 1 ml saline per ear, vehicle 48, three experiments): 43 pg/mL
IL-1β concentration in mouse ear (IL-1β; day 4, 1 ml saline per ear, vehicle 30, three experiments): 45 pg/mL
IL-1β concentration in mouse ear (IL-1β; day 5, 1 ml saline per ear, vehicle 41, three experiments): 46 pg/mL

CC(C)[C@H](N)C(=O)N[C@@H](CCCCN)C(=O)N[C@@H](CCCNC(=N)N)C(=O)N[C@@H](Cc1c[nH]c2ccccc12)C(=O)N[C@@H](CCCCN)C(=O)N[C@@H](CCCCN)C(=O)N[C@@H](Cc1c[nH]c2ccccc12)C(=O)N[C@@H](Cc1c[nH]c2ccccc12)C(=O)N[C@@H](CCCNC(=N)N)C(=O)N[C@@H](CCCCN)C(=O)N[C@@H](Cc1c[nH]c2ccccc12)C(=O)N[C@@H](CCCCN)C(=O)N[C@@H](CCCCN)C(=O)N[C@@H](Cc1c[nH]c2ccccc12)C(=O)N[C@H](C(N)=O)C(C)C [LZ1] (H-VKRWKKWWRKWKKWV-NH2)
hemolytic activity (human red blood cells): no more than 5.2%
MIC (S. aureus 09B2499): 2.3 µg/mL (≈ 1.03 µM)
MIC (P. acnes ATCC11827): 0.6 µg/mL (≈ 0.269 µM)
MIC (S. epidermidis 09A3726): 4.7 µg/mL (≈ 2.11 µM)
MIC (S. epidermidis 09B2490): 2.3 µg/mL (≈ 1.03 µM)
MIC [3]: 0.6 µg/mL (≈ 0.269 µM)
MIC (P. acnes ATCC6919): 0.6 µg/mL (≈ 0.269 µM)
antibacterial activity after incubation with human plasma ([4]; 8 hours): could not be significantly affected
effects on cell viabilities (cytotoxicity) [5]: no more than 5.6%

LL-37: human cathelicidin antimicrobial peptide LL-37 (control)
antibacterial activity after incubation with human plasma ([4]; 1 hour): completely lost its antibacterial activity
